# According to patent US20110263526A1, “Nitric Oxide Releasing Prodrugs of Therapeutic Agents” (PIRAMAL LIFE SCIENCES LIMITED, priority 2010, published 2011):
# Entries after “also recorded” stand apart in the source; their conditions may differ.
# What was measured:
# [1] = system: Salmonella strains TA100, TA98, TA1535, TA1537 and TA102 and Escherichia coli strain WP2 uvrA; experiment: AMES genotoxicity assay (bacterial reverse mutation test), six strains; assay type: cell-based, Salmonella typhimurium; Escherichia coli; settings: up to 5000 μg/plate (10-5000 μg/plate)
# Description: (§1) AMES test or bacterial reverse mutation test uses five mutant strains (i.e., TA98, TA100, TA1535, TA1537, TA102) of Salmonella typhimurium to test the mutagenicity of chemical substances (Kristien Mortelmans and Errol Zeiger, The Ames Salmonella/microsome mutagenicity assay, Mutation Research 2000, 455, 29-60 and the relevant reference cited therein). These mutants are called his mutants because of their dependence on an external source of histidine to grow. The test also uses one trp mutant strain WP2 uvrA (which needs external supply of tryptophan for its growth) of Escherichia coli (Kristein Mortelmans and Edward S. Riccio, The bacterial tryptophan reverse mutation assay with Escherichia coli WP2, Mutation Research 2000, 455, 61-69 and the relevant references cited therein). If the bacteria are incubated in the presence of a mutagen, a reverse mutation is induced, and the bacteria will grow. However, if the chemical substance is not mutagenic, there will be no reversion and thus no growth. The result is thus obtained in the absence of metabolic activation. Because many chemicals that are poor mutagens become potent mutagens after they have passed through the liver, homogenate of rat liver, called the S9 extract, are added to the bacteria before incubation. The bacteria/S9 mixture is then plated on a medium containing no histidine (use of tryptophan-deficient medium in case of E. coli strain), and the test chemical is placed in the center of the plate. The result is thus obtained in the presence of metabolic activation. A second plate that contains a non-mutagenic solvent as a negative control and a third plate that contains a known mutagen as a positive control are also run simultaneously. All the 3 types of plates (each type of plate, in fact, run simultaneously in triplicate for obtaining statistically significant data) are incubated for 48 hours at 37° C. The above procedure is called the plate incorporation method. The presence of numerous colonies of revertants in the test disk indicates a positive result: that is, the chemical substance is a mutagen (i.e., mutagenic if the increase in revertants is >2 fold for TA98, TA100, TA102 and WP2/uvrA or >3 fold for TA1535 and TA1537). Also, a positive result would be considered reliable when there is a dose-dependent increase in revertants at any two consecutive non-toxic concentrations which can be in the range of 10-5000 μg/plate. The presence of only a few spontaneous revertant colonies indicates a negative result. If a negative or equivocal result is obtained, the pre-incubation method is performed in which the cells are exposed to the test compounds for 30 min before plating. Also, before Ames test is initiated, a toxicity test on the chemical substance is performed using TA100 strain in the concentration range of 10-5000 μg/plate. […] When the test substance is found to be toxic at higher concentration range then the genotoxicity of that material is tested only in the non-toxic lower concentration range.
# TA100 = experiment: Ames test: toxicity test using TA100 strain; assay type: cell-based, Salmonella typhimurium; settings: up to 5000 μg/plate (10-5000 μg/plate)
# Description: as §1
# rats = experiment: Ulcerogenic activity (gastric ulcer lesions) in rats; assay type: in vivo; settings: dose containing 100 mg/kg of naproxen; for Gastric ulcers (Mean ± SEM) (mm^2) @ 100 mg/kg eq. @ 5 hours: overnight fasted rats, sacrificed after 5 h, total area of lesions; for Ulcer development (in words): rats, 5 h
# Description: The animals were sacrificed after 5 h of drug administration. The stomachs of the animals treated were separated, perfused with 2% formalin (10 ml), and then a large curvature was excised. The severity of the mucosal damage was assessed on the basis of the size of the observed ulcer lesions in the images captured using a stereomicroscope attached to a digital camera (Stemi 2000, Zeiss, Germany). The Image Pro Plus software (version 5.1) was used to quantify the hemorrhagic/ulcer lesions in pixels and converted into mm^2. The total area of lesions were calculated for each treatment group and the measure of gastric ulcers (Mean±SEM) (mm^2) presented in Table 3.
# [2] = system: carrageenan-induced rat paw edema; experiment: Anti-inflammatory activity in carrageenan-induced rat paw edema model; assay type: in vivo, male Sprague-Dawley rats; settings: for Anti-inflammatory activity (% Inhibition) @ 3 hours / Anti-inflammatory activity (% Inhibition) @ 5 hours: inhibition of paw edema vs control, Mean ± SEM, n = 8; for Anti-inflammatory activity (% Inhibition) @ 3 hours: oral dose containing 5 mg/kg of naproxen in PEG 400, 3 hours after carrageenan; for Anti-inflammatory activity (% Inhibition) @ 5 hours: oral dose containing 5 mg/kg of naproxen in PEG 400, 5 hours after carrageenan
# Description: […] […] One hour later, carrageenan (100 μl, 1% w/v) was injected in to their paws. The control group received PEG 400 (1 ml/kg).
SMILES,Genotoxicity to 6 strains [1],Toxicity to TA100 (TA100),melting point [°C],further results
CCCC1O[C@@H]2C[C@H]3[C@@H]4CCC5=CC(=O)C=C[C@]5(C)[C@H]4[C@@H](O)C[C@]3(C)[C@]2(C(=O)COC(=O)c2ccc(COC(=O)OC(C)O[N+](=O)[O-])cc2)O1 (some centres unmarked) [I-HD4-L20-R1],Non-mutagenic with TA 1535,Non-toxic,,
"COc1ccc2cc([C@H](C)C(=O)OC/C=C\COC(=O)OC(C)O[N+](=O)[O-])ccc2c1 (stereo partly drawn) [I-CD1-L2-R1, (2S)-((Z)-4-((1-(nitrooxy)ethoxy)carbonyloxy)but-2-enyl) 2-(6-methoxynaphthalen-2-yl)propanoate]",non-mutagenic in all the aforementioned six bacterial strains; also recorded: Non-genotoxic,non-toxic to TA100,76 to 78,"Gastric ulcers (Mean ± SEM) (mm^2) @ 100 mg/kg eq. @ 5 hours (rats): 0 ± 0 mm^2; Ulcer development (in words) (rats): none of the animals treated with the nitric oxide releasing prodrug of naproxen, I-CD1-L2-R1 showed any signs of development of ulcers; Anti-inflammatory activity (in words) ([2]; carrageenan-induced rat paw edema model, dose containing 5 mg/kg of naproxen): anti-inflammatory activity comparable to that of naproxen; Anti-inflammatory activity (% Inhibition) @ 3 hours [2]: 54.27 ± 5.31%; Anti-inflammatory activity (% Inhibition) @ 5 hours [2]: 36.61 ± 8.92%"
"COc1ccc2cc([C@H](C)C(=O)OCCCOC(=O)OC(C)O[N+](=O)[O-])ccc2c1 (stereo partly drawn) [I-CD1-L4-R1, (2S)-3-((1-(nitrooxy)ethoxy)carbonyloxy)propyl 2-(6-methoxynaphthalen-2-yl) propanoate]",non-mutagenic in all the aforementioned six bacterial strains; also recorded: Non-genotoxic,non-toxic to TA100,,
"CCCCc1nc(Cl)c(COC(=O)c2ccc(COC(=O)OC(C)O[N+](=O)[O-])cc2)n1Cc1ccc(-c2ccccc2-c2nnn[nH]2)cc1 (centres unmarked) [HD6-L20-R1, (1-((2′-(1H-Tetrazol-5-yl)biphenyl-4-yl)methyl)-2-butyl-4-chloro-1H-imidazol-5-yl)methyl 4-(((1-(nitrooxy)ethoxy)carbonyloxy)methyl)benzoate]",,,107 to 109,
"COc1ccc2cc([C@H](C)C(=O)OCCCSCCCOC(=O)OC(C)O[N+](=O)[O-])ccc2c1 (stereo partly drawn) [I-CD1-L18-R1, (2S)-3-(3-((1-(nitrooxy)ethoxy)carbonyloxy)propylthio)propyl 2-(6-methoxynaphthalen-2-yl)propanoate]",non-mutagenic in all the aforementioned six bacterial strains; also recorded: Non-genotoxic,non-toxic to TA100,,
"COc1ccc2cc([C@H](C)C(=O)O)ccc2c1 [Naproxen, naproxen, reference compound]",,,,Gastric ulcers (Mean ± SEM) (mm^2) @ 100 mg/kg eq. @ 5 hours (rats): 75 ± 13 mm^2; Ulcer development (in words) (rats): severe haemorrhagic lesions; Anti-inflammatory activity (% Inhibition) @ 3 hours [2]: 65.45 ± 5.84%; Anti-inflammatory activity (% Inhibition) @ 5 hours [2]: 49.09 ± 10.35%
"COc1ccc2cc([C@H](C)C(=O)OCCSSCCOC(=O)OC(C)O[N+](=O)[O-])ccc2c1 (stereo partly drawn) [I-CD1-L1-R1, (2S)-2-((2-((1-(nitrooxy)ethoxy)carbonyloxy)ethyl)disulfanyl)ethyl 2-(6-methoxynaphthalen-2-yl)propanoate]",non-mutagenic in all the aforementioned six bacterial strains; also recorded: Non-genotoxic,non-toxic to TA100,,
"COc1ccc2cc([C@H](C)C(=O)OCC[S+]([O-])CCOC(=O)OC(C)O[N+](=O)[O-])ccc2c1 (stereo partly drawn) [I-CD1-L16-R1, (2S)-2-(2-((1-(nitrooxy)ethoxy)carbonyloxy)ethylsulfinyl)ethyl 2-(6-methoxynaphthalen-2-yl)propanoate]",non-mutagenic in all the aforementioned six bacterial strains; also recorded: Non-genotoxic,non-toxic to TA100,112 to 115,
"CC(OC(=O)OC/C=C\COC(=O)C[C@H](O)C[C@H](O)CCn1c(-c2ccc(F)cc2)c(-c2ccccc2)c(C(=O)Nc2ccccc2)c1C(C)C)O[N+](=O)[O-] (stereo partly drawn) [I-CD8-L2-R1, (3R,5R)-((Z)-4-((1-(nitrooxy)ethoxy)carbonyloxy)but-2-enyl) 7-(2-(4-fluorophenyl)-5-isopropyl-3-phenyl-4-(phenylcarbamoyl)-1H-pyrrol-1-yl)-3,5-dihydroxyheptanoate]",,,56 to 58,
"COc1ccc2cc([C@H](C)C(=O)OCCS(=O)(=O)CCOC(=O)OC(C)O[N+](=O)[O-])ccc2c1 (stereo partly drawn) [I-CD1-L17-R1, (2S)-2-(2-((1-(nitrooxy)ethoxy)carbonyloxy)ethylsulfonyl)ethyl 2-(6-methoxynaphthalen-2-yl)propanoate]",Non-mutagenic with TA 1535,Non-toxic,98 to 100,
"CC(=O)Nc1ccc(OC(=O)c2ccc(COC(=O)OC(C)O[N+](=O)[O-])cc2)cc1 (centres unmarked) [HD5-L20-R1, 4-Acetamidophenyl 4-(((1-(nitrooxy)ethoxy)carbonyloxy)methyl)benzoate]",,,149 to 152,
